Test results: US20050257280A1, “Nonhuman model animal nonresponsive to endotoxin and lipoprotein or lipopeptide” (priority 2002, published 2005)

Assays:
Format in all cases: cell-based, mouse
ERK1/2, JNK and p38 = experiment: Activation of MAP kinases in peritoneal macrophages (Western blot); settings: LPS 100 ng/ml, MALP-2 3 ng/ml, R848 100 nM, 10 min and 20 min
Experimental: Next, peritoneal macrophages from wild-type and TIRAP^−/− mice were stimulated with 100 ng/ml of LPS, 3 ng/ml of MALP-2, and 100 nM of R848 for 10 min and 20 min, respectively. The cells were then lysed in the lysis buffer containing 1.0% Nonidet P-40, 150 mM NaCl, 20 mM tris-C1 (pH 7.5), 5 mM EDTA and protease inhibitor cocktail (Roche). The cell lysates were dissolved by SDS-PAGE and transferred onto a PVDF membrane (BioRad). The above-mentioned PVDF membrane was blotted with […] specific to ERK1/2, JNK, and p38 (Santa Cruz), and […] specific to phosphorylated ERK 1/2, phosphorylated JNK, and phosphorylated p38 (Cell Signaling) and Western blot analysis was conducted by visualizing with an enhanced chemiluminescence system (NEN Life Science Product) (FIG. 12). […] The result is quite similar to those observed in MyD88^−/− mice (Kawai et al.: Immunity 11: 115-22; 1999).

IRAK-1 = IRAK-1 in vitro kinase assay on lysates of stimulated peritoneal macrophages
Experimental: IRAK-1 is activated in the downstream of MyD88. […] In vitro kinase assay was conducted as described previously (Sato et al. II), and kinase activation of IRAK-1 was measured. The same lysates were blotted with anti-IRAK-1 antibody, and the effect of IRAK-1 was analyzed (FIG. 13).

[1] = tested on: splenocytes from wild-type and TIRAP−/− mice; experiment: Proliferation of splenocytes in the presence of IL-1, PHA or both ([3H]-thymidine uptake); settings: 100 U/ml IL-1β, 10 ng/ml PHA, 72 hr + 12 hr
Source text: As shown in MyD88-, TRAF6-, and IRAK-4-deficient mice, signaling pathway via IL-1 receptor family utilizes the same signaling pathway as that of TLRs (Adachi et. al., Immunity. 9, 143-150, 1998; Lomaga et al., Gene Dev. 13, 1015-24, 1999; Naito et al., Gene Cells 4, 353-62, 1999; Suzuki et al., Nature 416, 750-56, 2002). To investigate the proliferation of splenocytes from TIRAP^−/− mice induced by IL-1 or Phytohemagglutinin (PHA) being co-stimulatory substance with IL-1, splenocytes from wild-type and TIRAP^−/− mice were cultured for 72 hr and proliferated in the presence of 100 U/ml of IL-1β, and of 10 ng/ml of PHA, and in the co-presence of IL-1β and PHA, then supplemented with 1 μCi of [^3H]-thymidine, further cultured for 12 hr, and measured the uptake of [^3H] with a β scintillation counter. Proliferation of splenocytes was determined by measuring the [^3H] level of [^3H] thymidine ingested into a cell.

[2] = tested on: peritoneal macrophages from wild-type and TIRAP−/− mice; experiment: Inflammatory cytokine production of peritoneal macrophages (ELISA of culture supernatant); settings: LPS 1 ng/ml 24 hr, MALP-2 and PGN at various concentrations
Experimental: Next, LPS-induced inflammatory cytokine production of peritoneal macrophages from wild-type and TIRAP^−/− mice was analyzed. 2 ml of 4% thioglycollate medium (DIFCO) were intraperitoneally injected into TIRAP^−/− and wild-type mice, respectively. Three days later, peritoneal exudate cells were isolated from peritoneal cavity of each mouse. The cells were cultured for 2 hr at 37° C. in RPMI 1640 medium (GIBCO) supplemented with 10% fetal bovine serum (GIBCO), nonadherent cells were removed by washing with Hank's buffered salt solution: HBSS; GIBCO) at ice temperature, and adherent cells were used as peritoneal macrophages. Each obtained peritoneal macrophage was cultured with 1 ng/ml of Re-595 LPS for 24 hr, and concentration of IL-6, TNF-α and IL-12 in the culture supernatant was measured according to a common procedure by ELISA (FIG. 7; means±SD of triplicates, N.D. Not detected).
IL-6, TNF-α and IL-12 in the culture supernatant were measured using mycoplasmal lipopeptide MALP-2 being TLR2 ligand (synthesized and purified as described in Takeuchi-MALP) and Staphylococcus aureus peptidoglycan (PGN) (Fluka) at various concentrations (FIG. 9). […] Next, peritoneal macrophages of wild-type and TIRAP^−/− mice were stimulated with Poly I:C being TLR3 ligand (Amersham) for 4 hr and 8 hr. Total RNA was extracted, and the expression of IFN-β mRNA was analyzed by Northern blot method. […]

NF-κB = NF-κB DNA binding in nuclear extracts of peritoneal macrophages (EMSA); settings: LPS 100 ng/ml, MALP-2 3 ng/ml, R-848 10 nM
IFN-β mRNA = experiment: Expression of IFN-β mRNA in peritoneal macrophages (Northern blot); settings: stimulated 4 hr and 8 hr
Experimental: IL-6, TNF-α and IL-12 in the culture supernatant were measured using mycoplasmal lipopeptide MALP-2 being TLR2 ligand (synthesized and purified as described in Takeuchi-MALP) and Staphylococcus aureus peptidoglycan (PGN) (Fluka) at various concentrations (FIG. 9). […] Next, peritoneal macrophages of wild-type and TIRAP^−/− mice were stimulated with Poly I:C being TLR3 ligand (Amersham) for 4 hr and 8 hr. Total RNA was extracted, and the expression of IFN-β mRNA was analyzed by Northern blot method. At that time, 18S ribosomal RNA was used as control. Expression of IFN-β mRNA was induced in both wild-type and TIRAP^−/− mice (FIG. 10).

[3] = TIRAP−/− peritoneal macrophages
[4] = wild-type peritoneal macrophages

| Molecule | phosphorylation/activation of ERK1/2, JNK and p38 (ERK1/2, JNK and p38; wild-type macrophages) | autophosphorylation (Auto) of IRAK-1 (IRAK-1; TIRAP−/− macrophages) | autophosphorylation (Auto) of IRAK-1 (IRAK-1; wild-type macrophages) | proliferation of splenocytes (uptake of [3H]-thymidine) ([1]; TIRAP−/− splenocytes) | proliferation of splenocytes (uptake of [3H]-thymidine) ([1]; wild-type splenocytes) | also measured |
| --- | --- | --- | --- | --- | --- | --- |
| CCOCc1nc2c(N)nc3ccccc3c2n1CC(C)(C)O [R-848] | phosphorylated and activation was induced | autophosphorylation was induced | induced autophosphorylation | – | – | – |
| IL-1: Interleukin-1 cytokine, used as IL-1β at 100 U/ml | – | – | – | enhanced proliferation | enhanced proliferation | – |
| MALP-2 | phosphorylated and activation was induced | not observed | induced autophosphorylation | – | – | phosphorylation/activation of ERK1/2, JNK and p38 (ERK1/2, JNK and p38; TIRAP−/− macrophages): not observed; production of IL-6, TNF-α and IL-12 [2, 3]: severely impaired; production of IL-6, TNF-α and IL-12 [2, 4]: dose-dependent production; NF-κB DNA binding effect (NF-κB; TIRAP−/− macrophages, LPS at 10 min): significantly inhibited; NF-κB DNA binding effect (NF-κB; wild-type macrophages, LPS and MALP-2 at 10 min): observed |
| Phytohemagglutinin [PHA] | – | – | – | enhanced proliferation | enhanced proliferation | – |
| Poly I:C | – | – | – | – | – | expression of IFN-β mRNA (IFN-β mRNA; [3]): induced; expression of IFN-β mRNA (IFN-β mRNA; [4]): induced |
